Assays:
TMK = conditions: high binding affinity due to LID loop closure; cited from earlier work
[1] = biological target: Pseudomonas aeruginosa thymidylate monophosphate kinase (TMK) (Pseudomonas aeruginosa, UniProt Q9HZN8); assay: Thymidylate kinase kinetic assay; assay type: biochemical; conditions: for fold improved potency over 19: PaTMK IC50 compared with secondary amide 19; for fold decreased inhibition compared with 17: PaTMK IC50 compared with 17; for fold improved inhibition over 1: PaTMK IC50 compared with 1
Pseudomonas aeruginosa thymidylate monophosphate kinase (TMK), sequence (Q9HZN8 whole entry): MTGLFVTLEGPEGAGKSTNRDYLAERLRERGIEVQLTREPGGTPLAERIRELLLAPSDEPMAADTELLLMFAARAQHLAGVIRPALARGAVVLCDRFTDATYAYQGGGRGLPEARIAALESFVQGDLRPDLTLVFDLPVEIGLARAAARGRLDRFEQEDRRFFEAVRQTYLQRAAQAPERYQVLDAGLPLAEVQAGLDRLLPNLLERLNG

Cc1cn([C@H]2C[C@H](O)[C@@H](COP(=O)(O)OP(=O)(O)OP(=O)(O)OP(=O)(O)OP(=O)(O)OC[C@H]3O[C@@H](n4cnc5c(N)ncnc54)[C@H](O)[C@@H]3O)O2)c(=O)[nH]c1=O [TP5A, P1-(5′-adenosyl)-P5-(5′-thymidyl)pentaphosphate]
Kd (TMK): 20 nM

Cn1c(=O)[nH]c2ncc(-c3cccc(C(=O)NCCCc4c[nH]c5ccccc45)c3)cc21 [Compound 48, N-(3-(1H-Indol-3-yl)propyl)-3-(1-methyl-2-oxo-2,3-dihydro-1H-imidazo[4,5-b]pyridin-6-yl)benzamide]
fold improved potency over 19 [1]: ca. 18 fold

Cn1c(=O)[nH]c2ncc(-c3cccc(C(=O)NCC(N)=O)c3)cc21 [Compound 30, N-(2-Amino-2-oxoethyl)-3-(1-methyl-2-oxo-2,3-dihydro-1H-imidazo[4,5-b]pyridin-6-yl)benzamide]
fold improved potency over 19 [1]: about 2.5 fold

Cn1c(=O)[nH]c2ncc(-c3cccc(C(=O)NCCCc4ccc(C(F)(F)F)cc4)c3)cc21 [Compound 57, 3-(1-Methyl-2-oxo-2,3-dihydro-1H-imidazo[4,5-b]pyridin-6-yl)-N-(3-(4-(trifluoromethyl)phenyl)propyl)benzamide]
fold improved potency over 19 [1]: ca. 18 fold

CN(C)C(=O)c1cccc(-c2cnc3[nH]c(=O)n(C)c3c2)c1 [Compound 20, N,N-Dimethyl-3-(1-methyl-2-oxo-2,3-dihydro-1H-imidazo[4,5-b]pyridin-6-yl)benzamide]
fold decreased inhibition compared with 17 [1]: 240 fold

Cl.Cn1c(=O)[nH]c2ncc(-c3cccc(CN)c3)cc21 [Compound 15, 6-(3-(Aminomethyl)phenyl)-1-methyl-1H-imidazo[4,5-b]pyridin-2(3H)-one hydrochloride]
PaTMK inhibition (in words) [1]: lack of activity

Cn1c(=O)[nH]c2ncc(-c3cccc(C#N)c3)cc21 [Compound 14, 3-(1-Methyl-2-oxo-2,3-dihydro-1H-imidazo[4,5-b]pyridin-6-yl)benzonitrile]
PaTMK inhibition (in words) [1]: inactive

CNC(=O)c1cccc(-c2cnc3[nH]c(=O)n(C)c3c2)c1 [Compound 19, N-Methyl-3-(1-methyl-2-oxo-2,3-dihydro-1H-imidazo[4,5-b]pyridin-6-yl)benzamide]
fold improved inhibition over 1 [1]: 30 fold
fold decreased inhibition compared with 17 [1]: 5 fold

Cn1c(=O)[nH]c2ncc(-c3cccc(C(=O)NCC(Cc4ccccc4)C(=O)O)c3)cc21 (centres unmarked) [Compound 53, 2-Benzyl-3-(3-(1-methyl-2-oxo-2,3-dihydro-1H-imidazo[4,5-b]pyridin-6-yl)benzamido)propanoic acid]
fold improved potency over 19 [1]: ca. 18 fold

Cn1c(=O)[nH]c2ncc(-c3cccc(C(N)=O)c3)cc21 [Compound 17, 3-(1-Methyl-2-oxo-2,3-dihydro-1H-imidazo[4,5-b]pyridin-6-yl)benzamide]
fold improved inhibition over 1 [1]: 130 fold
fold increase of PaTMK inhibition over 26 ([1]; compared with 26 (p-carboxamide)): ca. 1000 fold

Cn1c(=O)[nH]c2ncc(-c3cccc(C(=O)NCC(=O)O)c3)cc21 [Compound 31, 2-(3-(1-Methyl-2-oxo-2,3-dihydro-1H-imidazo[4,5-b]pyridin-6-yl)benzamido)acetic acid]
fold improved potency over 19 [1]: about 2.5 fold

Cn1c(=O)[nH]c2ncc(-c3cccc(C(=O)NCCCc4ccc(F)cc4)c3)cc21 [Compound 47, N-(3-(4-Fluorophenyl)propyl)-3-(1-methyl-2-oxo-2,3-dihydro-1H-imidazo[4,5-b]pyridin-6-yl)benzamide]
fold improved potency over 19 [1]: ca. 18 fold

From publication PMC3306445 (Journal of Medicinal Chemistry, 2012)
